Experimental data taken from PubChem BioAssay (NCI).
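Briefly, cells in 96-well plates were exposed to five compound concentrations for 48 h, and endpoints were estimated by linear interpolation. TGI is the concentration that stops growth completely.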

Experiments:
Assay in all cases: DTP human tumour cell line panel, 48 h
[1] = test system: 786-0 renal
[2] = test system: A498 renal
[3] = test system: A549 NSCLC
[4] = test system: ACHN renal
[5] = test system: BT-549 breast
[6] = test system: CAKI-1 renal
[7] = test system: CCRF-CEM leukemia
[8] = test system: COLO 205 colon
[9] = test system: DU-145 prostate
[10] = test system: EKVX NSCLC
[11] = test system: HCC-2998 colon
[12] = test system: HCT-116 colon
[13] = test system: HCT-15 colon
[14] = test system: HL-60(TB) leukemia
[15] = test system: HOP-62 NSCLC
[16] = test system: HOP-92 NSCLC
[17] = test system: HS 578T breast
[18] = test system: HT29 colon
[19] = test system: IGROV1 ovarian
[20] = test system: K-562 leukemia
[21] = test system: KM12 colon
[22] = test system: LOX IMVI melanoma
[23] = test system: M14 melanoma
[24] = test system: MALME-3M melanoma
[25] = test system: MCF7 breast
[26] = test system: MDA-MB-231 breast
[27] = test system: MDA-MB-435
[28] = test system: MDA-N
[29] = test system: MOLT-4 leukemia
[30] = test system: NCI-H226 lung
[31] = test system: NCI-H23 lung
[32] = test system: NCI-H460 lung
[33] = test system: NCI-H522 lung
[34] = test system: NCI/ADR-RES ovarian
[35] = test system: OVCAR-3 ovarian
[36] = test system: OVCAR-4 ovarian
[37] = test system: OVCAR-5 ovarian
[38] = test system: OVCAR-8 ovarian
[39] = test system: PC-3 prostate
[40] = test system: RPMI-8226 leukemia
[41] = test system: RXF 393 renal
[42] = test system: SF-268 CNS
[43] = test system: SF-295 CNS
[44] = test system: SF-539 CNS
[45] = test system: SK-MEL-2 melanoma
[46] = test system: SK-MEL-28 melanoma
[47] = test system: SK-MEL-5 melanoma
[48] = test system: SK-OV-3 ovarian
[49] = test system: SN12C renal
[50] = test system: SNB-19 CNS
[51] = test system: SNB-75 CNS
[52] = test system: SR leukemia
[53] = test system: SW-620 colon
[54] = test system: T-47D breast
[55] = test system: TK-10 renal
[56] = test system: U251 CNS
[57] = test system: UACC-257 melanoma
[58] = test system: UACC-62 melanoma
[59] = test system: UO-31 renal

SMILES: COc1cccc(N2C(=O)C3CC(CC(C)(C)C)c4c([nH]c5ccccc45)C3C2=O)c1 (configuration not stated)
- TGI [1]: > 10 µM
- TGI [2]: > 10 µM
- TGI [3]: > 10 µM
- TGI [4]: > 10 µM
- TGI [5]: > 10 µM
- TGI [6]: > 10 µM
- TGI [7]: > 10 µM
- TGI [8]: > 10 µM
- TGI [9]: > 10 µM
- TGI [10]: > 10 µM
- TGI [11]: > 10 µM
- TGI [12]: > 10 µM
- TGI [13]: > 10 µM
- TGI [14]: > 10 µM
- TGI [15]: > 10 µM
- TGI [16]: > 10 µM
- TGI [17]: 9.87 µM
- TGI [18]: > 10 µM
- TGI [19]: > 10 µM
- TGI [20]: > 10 µM
- TGI [21]: > 10 µM
- TGI [22]: > 10 µM
- TGI [23]: > 10 µM
- TGI [24]: > 10 µM
- TGI [25]: > 10 µM
- TGI [26]: > 10 µM
- TGI [27]: > 10 µM
- TGI [28]: > 10 µM
- TGI [29]: > 10 µM
- TGI [30]: > 10 µM
- TGI [31]: > 10 µM
- TGI [32]: > 10 µM
- TGI [33]: > 10 µM
- TGI [34]: > 10 µM
- TGI [35]: > 10 µM
- TGI [36]: > 10 µM
- TGI [37]: > 10 µM
- TGI [38]: > 10 µM
- TGI [39]: > 10 µM
- TGI [40]: > 10 µM
- TGI [41]: > 10 µM
- TGI [42]: > 10 µM
- TGI [43]: > 10 µM
- TGI [44]: 8.42 µM
- TGI [45]: > 10 µM
- TGI [46]: > 10 µM
- TGI [47]: > 10 µM
- TGI [48]: > 10 µM
- TGI [49]: > 10 µM
- TGI [50]: > 10 µM
- TGI [51]: 7.04 µM
- TGI [52]: 4.2 µM
- TGI [53]: > 10 µM
- TGI [54]: > 10 µM
- TGI [55]: > 10 µM
- TGI [56]: > 10 µM
- TGI [57]: > 10 µM
- TGI [58]: > 10 µM

SMILES: Cc1cc(/N=C/c2ccc(Cl)cc2)n(-c2ccccc2)n1
- TGI [1]: > 100 µM
- TGI [2]: 79.7 µM
- TGI [3]: > 100 µM
- TGI [4]: > 100 µM
- TGI [5]: > 100 µM
- TGI [6]: > 100 µM
- TGI [7]: > 100 µM
- TGI [8]: > 100 µM
- TGI [9]: > 100 µM
- TGI [10]: > 100 µM
- TGI [11]: 71 µM
- TGI [12]: > 100 µM
- TGI [13]: > 100 µM
- TGI [14]: 91.5 µM
- TGI [15]: > 100 µM
- TGI [16]: > 100 µM
- TGI [17]: > 100 µM
- TGI [18]: > 100 µM
- TGI [19]: > 100 µM
- TGI [20]: > 100 µM
- TGI [21]: > 100 µM
- TGI [22]: > 100 µM
- TGI [23]: > 100 µM
- TGI [24]: > 100 µM
- TGI [25]: > 100 µM
- TGI [26]: > 100 µM
- TGI [27]: > 100 µM
- TGI [28]: > 100 µM
- TGI [29]: > 100 µM
- TGI [30]: > 100 µM
- TGI [31]: > 100 µM
- TGI [32]: > 100 µM
- TGI [33]: > 100 µM
- TGI [34]: > 100 µM
- TGI [35]: > 100 µM
- TGI [36]: > 100 µM
- TGI [37]: > 100 µM
- TGI [38]: > 100 µM
- TGI [39]: > 100 µM
- TGI [40]: > 100 µM
- TGI [41]: 77.1 µM
- TGI [42]: > 100 µM
- TGI [43]: > 100 µM
- TGI [44]: > 100 µM
- TGI [45]: > 100 µM
- TGI [46]: > 100 µM
- TGI [47]: 68.8 µM
- TGI [48]: > 100 µM
- TGI [49]: > 100 µM
- TGI [50]: > 100 µM
- TGI [51]: > 100 µM
- TGI [52]: > 100 µM
- TGI [53]: > 100 µM
- TGI [54]: 79.4 µM
- TGI [55]: > 100 µM
- TGI [56]: > 100 µM
- TGI [57]: > 100 µM
- TGI [58]: > 100 µM
- TGI [59]: > 100 µM
